# Source: article PMC11365428 (The Journal of Biological Chemistry, 2024)
# Non-standard residues stand in square brackets, D forms with d. Residues, ends and D or L forms follow the SMILES beside them. pGlu = O=C1CC[C@@H](C(=O)O)N1
# Experiments:
# [1] = biological target: T1, apTKRPR-B (Aplysia californica, UniProt A0AAU7STS1); experiment: Receptor desensitization assay, protocol 1 (prolonged agonist exposure), apTKRPR-B; format: cell-based; settings: 10 μM, 2, 5, 10, 15, 30 and 60 min at 37 °C; fold increase over basal; n = 3
# T1 sequence (A0AAU7STS1 1-447): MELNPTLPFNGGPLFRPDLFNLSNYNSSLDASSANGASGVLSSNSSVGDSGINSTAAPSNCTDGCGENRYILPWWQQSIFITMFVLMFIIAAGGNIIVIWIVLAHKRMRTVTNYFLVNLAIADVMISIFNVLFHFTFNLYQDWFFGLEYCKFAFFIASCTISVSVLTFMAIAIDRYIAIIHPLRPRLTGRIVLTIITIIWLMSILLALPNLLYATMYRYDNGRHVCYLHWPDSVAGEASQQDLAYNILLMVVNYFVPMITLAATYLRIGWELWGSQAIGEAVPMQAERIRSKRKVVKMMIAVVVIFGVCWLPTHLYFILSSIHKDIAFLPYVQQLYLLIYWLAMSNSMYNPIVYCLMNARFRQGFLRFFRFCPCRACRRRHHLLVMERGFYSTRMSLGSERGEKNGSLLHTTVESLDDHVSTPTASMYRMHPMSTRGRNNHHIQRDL
# Experimental: (§1) Therefore, we adopted two protocols to study the desensitization of apTKRPRs. The protocols were performed using a procedure modified from previous work ([87], [88], [89]).
# (§2) Protocol 1 ([87], [88]): Under continuous (prolonged) stimulation with an agonist, we examined agonist-induced desensitization by quantifying the rate of IP1 accumulation. Specifically, CHO-K1 cells transiently expressing pcDNA3.1-apTKRPRs were incubated in the absence or presence of 10 μM (saturating concentration) apTKRP-2b for the different duration (2, 5, 10, 15, 30, and 60 min) at 37 °C, and intracellular concentrations of IP1 accumulation were measured. Data are presented as fold increase over basal IP1 concentration (Fig. S10).
# [2] = system: putative neuropeptide FF receptor (apNPFFR); experiment: IP1 accumulation assay, CHO-K1 cells transiently expressing putative neuropeptide FF receptor; format: cell-based, Aplysia californica; settings: 10^-5 M compared with 10^-10 M (control); n = 3; no Gαq cotransfection
# Experimental: To express putative Aplysia receptors transiently in CHO-K1 cells, the cDNAs were subcloned into the pcDNA3.1(+) or pcDNA3.1(+)-FLAG (for ELISA experiments only, see “Cell surface expression analysis by ELISA” section) expression vector. On the day before transfection, the CHO-K1 cells were passaged into 60 mm diameter tissue culture–treated dishes, and the transfection experiments were performed when the cells were grown to 70 to 90% confluence. CHO-K1 cells were transfected with the cDNA plasmid constructs using Turbofect Transfection reagent (Thermo Fisher Scientific, R0531), following the manufacturer’s instructions. In brief, 4 μg of the putative receptor plasmids [in pcDNA3.1(+) or pcDNA3.1(+)-FLAG] were mixed with 400 μl of Opti-MEM (Gibco, 11058021), followed by the addition of 15 μl of TurboFect Transfection reagent and incubated at room temperature for 15 min. The DNA/TurboFect mixture dropwise was then added to the dish, and the cells were incubated at 37 °C in a humidified incubator containing 5% CO2 overnight.
# The next day, transfected cells were trypsinized and reseeded in an opaque white 96-well half-area (Corning, 3688) or 384-well tissue culture–treated plates (Corning, 3570) at a density of 20,000 cells/well in F-12K and 10% FBS and incubated at 37 °C in a humidified incubator containing 5% CO2 overnight. On the third day, the activation of the putative receptors was detected by monitoring intracellular IP1 concentration using an IP-One Gq kit (Cisbio, 62IPAPEB) in Tecan Spark. Except for using 0.5x reagent, all other procedures were performed following the manufacturer’s instructions. IP1 accumulation assay measures the accumulation of IP1, which is hydrolyzed from the second messenger, and inositol triphosphate. Inositol triphosphate is generated by the Gαq pathway when a GPCR is activated by an appropriate ligand.
# [3] = biological target: apTKRPR-B T391 (Aplysia californica, UniProt A0AAU7STS1, DEL392-447); experiment: IP1 accumulation assay, C-terminal truncate apTKRPR-B T391; format: cell-based
# Experimental: To express putative Aplysia receptors transiently in CHO-K1 cells, the cDNAs were subcloned into the pcDNA3.1(+) or pcDNA3.1(+)-FLAG (for ELISA experiments only, see “Cell surface expression analysis by ELISA” section) expression vector. On the day before transfection, the CHO-K1 cells were passaged into 60 mm diameter tissue culture–treated dishes, and the transfection experiments were performed when the cells were grown to 70 to 90% confluence. CHO-K1 cells were transfected with the cDNA plasmid constructs using Turbofect Transfection reagent (Thermo Fisher Scientific, R0531), following the manufacturer’s instructions. In brief, 4 μg of the putative receptor plasmids [in pcDNA3.1(+) or pcDNA3.1(+)-FLAG] were mixed with 400 μl of Opti-MEM (Gibco, 11058021), followed by the addition of 15 μl of TurboFect Transfection reagent and incubated at room temperature for 15 min. […]
# The next day, transfected cells were trypsinized and reseeded in an opaque white 96-well half-area (Corning, 3688) or 384-well tissue culture–treated plates (Corning, 3570) at a density of 20,000 cells/well in F-12K and 10% FBS and incubated at 37 °C in a humidified incubator containing 5% CO2 overnight. On the third day, the activation of the putative receptors was detected by monitoring intracellular IP1 concentration using an IP-One Gq kit (Cisbio, 62IPAPEB) in Tecan Spark. […]
# [4] = biological target: T2, apTKRPR-A (Aplysia californica, UniProt A0AAU7SSZ1); experiment: Receptor desensitization assay, protocol 1 (prolonged agonist exposure), apTKRPR-A; format: cell-based; settings: 10 μM, 2, 5, 10, 15, 30 and 60 min at 37 °C; fold increase over basal; n = 3
# T2 sequence (A0AAU7SSZ1 1-398): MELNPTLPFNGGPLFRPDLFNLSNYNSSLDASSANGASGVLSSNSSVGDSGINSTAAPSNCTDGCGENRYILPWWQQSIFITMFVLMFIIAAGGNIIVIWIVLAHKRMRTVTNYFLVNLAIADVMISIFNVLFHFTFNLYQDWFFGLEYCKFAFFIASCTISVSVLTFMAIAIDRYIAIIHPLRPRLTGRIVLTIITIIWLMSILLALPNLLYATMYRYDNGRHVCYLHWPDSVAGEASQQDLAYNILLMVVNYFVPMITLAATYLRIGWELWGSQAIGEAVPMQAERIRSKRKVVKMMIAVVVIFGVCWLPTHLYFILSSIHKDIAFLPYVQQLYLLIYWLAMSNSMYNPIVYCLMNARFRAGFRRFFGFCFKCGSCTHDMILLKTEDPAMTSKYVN
# Experimental: as §1, §2
structure (smiles),measurement,setting,value
CC(C)C[C@H](NC(=O)[C@H](Cc1c[nH]cn1)NC(=O)[C@@H]1CCCN1C(=O)[C@@H]1CCC(=O)N1)C(=O)NCC(=O)N[C@@H](Cc1ccccc1)C(=O)N[C@@H](Cc1c[nH]cn1)C(=O)NCC(=O)N[C@@H](CO)C(=O)N[C@@H](CCCNC(=N)N)C(N)=O [apTKRP-2b] ([pGlu]PHLGFHGSR-NH2),"time course of IP1 accumulation, apTKRPR-B (protocol 1)",[1],initially increased and then reached a plateau
same,IP1 response of putative apNPFFR in screening,[2],did not respond
same,EC50,[3],21.4 nM
same,"time course of IP1 accumulation, apTKRPR-A (protocol 1)",[4],initially increased and then reached a plateau
